Measurements reported in patent publication US8563516B2, “Foxp3 peptide vaccine” (OncoTherapy Science, Inc., priority 2007, dated 2013).
“Also recorded” adds a separate entry of the source.

Columns and labels:
BALB/c mice = assay: Immunogenicity of epitope peptides in BALB/c mice (IFN-gamma ELISPOT on splenocytes); assay type: in vivo
Experimental: IFA-conjugated peptide or IFA only were injected s.c. into BALB/c mice on day 0 and 7. On day 14, splenocytes of vaccinated mice were harvested and used as responder cells. 1×10^4 RLmale1 cells pulsed corresponding peptide (solid square), or no peptide (open square) were used as stimulator cells for IFN-gamma ELISPOT assay. Vaccination using Foxp3-252_h (A) and Foxp3-252_m (B) were performed into five mice (M1-M5) and IFA without any peptide injection were performed into three mice (N1-N3) as control in each assay.
For priming the peptide-specific CTLs, immunization was given using 100 mcl vaccine mixture, which contains 50 mcl HLA-A24 restricted peptide and 50 mcl IFA per mouse. The vaccine was injected s.c. into the right flank of mice for the first immunization on day 0 and in the left flank for the second on the day 7. On day 14, splenocytes from vaccinated mice were used as the responder cells, and RLmale1 cells pulsed with or without peptides were used as the stimulator cells for IFN-gamma ELISPOT assay.
To evaluate the immunogenicity of Foxp3-9-252 peptide for BALB/c mice, immunization with human Foxp3-9-252 peptide (Foxp3-252_h; KLSAMQAHL)(SEQ ID NO: 17) and mouse Foxp3-9-252 peptide (Foxp3-252_m; KLGAMQAHL) (SEQ ID NO: 89) were performed, respectively. After second injection of peptide, peptide specific CTL activity was determined by IFN-gamma ELISPOT assay (FIG. 5).

peptide-pulsed T2 cells = assay: IFN-gamma ELISPOT on CTLs induced with HLA-A0201 restricted Foxp3 peptides; assay type: cell-based, human; details: FIG. 2A/2B/2C
Excerpt: Monocyte-derived dendritic cells (DCs) were used as antigen-presenting cells (APCs) to induce CTL responses against peptides presented on HLA. DCs were generated in vitro as described elsewhere (Horiguchi S. et al. Cancer Res. 59:2950-6). Specifically, peripheral blood mononuclear cells (PBMCs) isolated from normal volunteer (HLA-A*2402 and/or HLA-A*0201) with Ficoll-Plaque (Pharmacia) solution were separated by adherence to plastic tissue culture dish (Becton Dickinson) so as to enrich them for the monocyte fraction. The monocyte-enriched population was cultured in the presence of 1000 U/ml of GM-CSF (R&D System) and 1000 U/ml of IL-4 (R&D System) in AIM-V medium (Invitrogen) containing 2% heat-inactivated autologous serum (AS). After 7 days in the culture, the cytokine-generated DCs were pulsed with 20 mcg/ml of the synthesized peptides in the presence of 3 mcg/ml of beta2-microglobulin for 4 hrs at 20 degrees C. in AIM-V medium. These peptide-pulsed DCs were then inactivated with mitomycin C (MMC) (30 mcg/ml for 30 mins) and mixed at a 1:20 ratio with autologous CD8+ T cells, obtained by positive selection with CD8 Positive Isolation Kit (Dynal). These cultures were set up in 48-well plates (Corning); each well contained 1.5×10^4 peptide-pulsed DCs, 3×10^5 CD8+ T cells and 10 ng/ml of IL-7 (R&D System) in 0.5 ml of AIM-V/2% AS. Three days later, these cultures were supplemented with IL-2 (CHIRON) to a final concentration of 20 IU/ml. On day 7 and 14, the T cells were further restimulated with the peptide-pulsed autologous DCs. The DCs were prepared each time through the same procedure described above. CTL activity was tested against peptide-pulsed A24LCL cells or T2 cells after the 3rd round of peptide stimulation on day 21.
To examine the specific CTL activity, IFN-gamma ELISPOT assay and IFN-gamma ELISA were performed. Briefly, peptide-pulsed A24-LCL, T2 cell (1×10^4/well) or the cells endogenously expressing Foxp3 and HLA molecule was prepared as a stimulator cells. Cultured CTL lines in 48 wells were used as a responder cells. IFN-gamma ELISPOT assay and IFN-gamma ELISA were performed under manufacture procedure.
Resulting CTLs showing detectable specific CTL activity were shown in FIG. 2A, FIG. 2B and FIG. 2C when performed by IFN-gamma ELISPOT assay.

4T1 breast cancer cells = assay: In vivo antitumor effects of vaccination, 4T1 tumor; set-up: species or system BALB/c mice; details: 4T1 s.c. day 0, vaccination day 3 and 10, compared with control mice, FIG. 6
Experimental: 1×10^5 4T1 breast cancer cell lines were injected into BALB/c mice on day 0. IFA-conjugated with Foxp3-252_h (-open circle-), Foxp3-252_m (-solid square-), no peptide (-solid triangle-) was injected on day 3 and 10. As control of normal tumor growth, non-vaccinated mice (-x-) were also prepared in this assay.
4T1 cells (1×10^5 per mouse) were injected s.c. into the right flank of BALB/c mice on day 0. Vaccination was done on days 3 and 10 using hFoxp3-252 (KLSAMQAHL: SEQ ID NO: 17) or mFoxp3-252 (KLGAMQAHL: SEQ ID NO: […]) IFA-conjugated peptides.
To examine the antitumor effects with peptide vaccination targeted Foxp3, in vivo therapeutic setting was attempted by using 4T1 tumor cells and BALB/c mice. The 4T1 breast cancer cells were injected s.c. into BALB/c mice on day 0, and then vaccination was done on these mice 3 and 10 days after the tumor challenge.

Sequence: KLSAMQAHL (peptide vaccine) [SEQ ID NO 17]
- mice with peptide specific CTL response (BALB/c mice; IFA-conjugated peptide s.c. day 0 and 7, splenocytes day 14, RLmale1 stimulator cells, FIG. 5): three of five
- induction of epitope specific CTLs in vivo (BALB/c mice; vaccination of BALB/c mice, discussion, listed as hFoxp3-252): could induce epitope specific CTLs in vivo; also recorded: superior to mFoxp3-252 peptide
- IFN-gamma production of CTLs stimulated with peptide, compared with the control (peptide-pulsed T2 cells): potent IFN-gamma production
- tumor growth / antitumor effect (4T1 breast cancer cells; listed as Foxp3-252_h): tumor growth apparently reduced; also recorded: Significant difference of tumor growth suppression
- tumor growth / antitumor effect (4T1 breast cancer cells; listed as hFoxp3-252): obviously anti-tumor effects; also recorded: superior to mFoxp3-252 peptide
